# ± gives the expanded uncertainty stated by the source.
# Assay: Solid-liquid equilibrium temperature
# Conditions: Crystal, visual observation
structure (smiles),measurement,setting,value
"CCCCCCCCCCCCCCCC1CCCCC1 [cyclohexane, pentadecyl-]",Solid-liquid equilibrium temperature,100 kPa,298.1 ± 1.1 K
same,Solid-liquid equilibrium temperature,19300 kPa,302.6 ± 1.1 K
same,Solid-liquid equilibrium temperature,40000 kPa,307.6 ± 1.1 K
same,Solid-liquid equilibrium temperature,60100 kPa,312.3 ± 1.1 K
same,Solid-liquid equilibrium temperature,80300 kPa,316.8 ± 1.1 K
same,Solid-liquid equilibrium temperature,100100 kPa,320.8 ± 1.1 K
"CCCCCCCCCCCCCC1CCCCC1 [cyclohexane, tridecyl-]",Solid-liquid equilibrium temperature,100 kPa,286.9 ± 1.1 K
same,Solid-liquid equilibrium temperature,20000 kPa,291.7 ± 1.1 K
same,Solid-liquid equilibrium temperature,40200 kPa,296.3 ± 1.1 K
same,Solid-liquid equilibrium temperature,60000 kPa,300.7 ± 1.1 K
same,Solid-liquid equilibrium temperature,80100 kPa,304.9 ± 1.1 K
same,Solid-liquid equilibrium temperature,100000 kPa,309.1 ± 1.1 K
CCCCCCCCCCC1CCCCC1 [decylcyclohexane],Solid-liquid equilibrium temperature,100 kPa,271.3 ± 0.5 K
same,Solid-liquid equilibrium temperature,20000 kPa,276 ± 0.5 K
same,Solid-liquid equilibrium temperature,40100 kPa,280.5 ± 0.6 K
same,Solid-liquid equilibrium temperature,59900 kPa,284.8 ± 0.6 K
same,Solid-liquid equilibrium temperature,80100 kPa,289.2 ± 0.6 K
same,Solid-liquid equilibrium temperature,100100 kPa,293.9 ± 0.6 K
CCCCCCCCCCCCC1CCCCC1 [dodecylcyclohexane],Solid-liquid equilibrium temperature,100 kPa,285.8 ± 0.5 K
same,Solid-liquid equilibrium temperature,19500 kPa,290.6 ± 0.6 K
same,Solid-liquid equilibrium temperature,39600 kPa,295.2 ± 0.6 K
same,Solid-liquid equilibrium temperature,60900 kPa,299.9 ± 0.6 K
same,Solid-liquid equilibrium temperature,79900 kPa,304.2 ± 0.6 K
same,Solid-liquid equilibrium temperature,100000 kPa,308.4 ± 0.6 K
CCCCCCCCCCCCCCCCCCCC1CCCCC1 [nonadecylcyclohexane],Solid-liquid equilibrium temperature,100 kPa,315.7 ± 0.7 K
same,Solid-liquid equilibrium temperature,19800 kPa,320.6 ± 0.7 K
same,Solid-liquid equilibrium temperature,39500 kPa,324.8 ± 0.7 K
same,Solid-liquid equilibrium temperature,59800 kPa,329.2 ± 0.7 K
same,Solid-liquid equilibrium temperature,78000 kPa,333.7 ± 0.7 K
CCCCCCCCCCCCCCCCCCC1CCCCC1 [octadecylcyclohexane],Solid-liquid equilibrium temperature,100 kPa,314.3 ± 1.1 K
same,Solid-liquid equilibrium temperature,20000 kPa,319.3 ± 1.1 K
same,Solid-liquid equilibrium temperature,39900 kPa,324.2 ± 1.1 K
same,Solid-liquid equilibrium temperature,59600 kPa,328.8 ± 1.1 K
CCCCCCCCCCCCCCC1CCCCC1 [tetradecylcyclohexane],Solid-liquid equilibrium temperature,100 kPa,297.2 ± 0.9 K
same,Solid-liquid equilibrium temperature,20000 kPa,302.2 ± 0.9 K
same,Solid-liquid equilibrium temperature,39900 kPa,307 ± 0.9 K
same,Solid-liquid equilibrium temperature,60000 kPa,311.5 ± 0.9 K
same,Solid-liquid equilibrium temperature,79900 kPa,316 ± 0.9 K
same,Solid-liquid equilibrium temperature,100100 kPa,320.3 ± 1 K
"CCCCCCCCCCCC1CCCCC1 [undecane, 1-cyclohexyl-]",Solid-liquid equilibrium temperature,100 kPa,272.4 ± 0.8 K
same,Solid-liquid equilibrium temperature,20000 kPa,276.8 ± 0.8 K
same,Solid-liquid equilibrium temperature,40000 kPa,281.3 ± 0.8 K
same,Solid-liquid equilibrium temperature,60000 kPa,285.7 ± 0.9 K
same,Solid-liquid equilibrium temperature,80500 kPa,289.9 ± 0.9 K
same,Solid-liquid equilibrium temperature,100000 kPa,293.9 ± 0.9 K

# — the NIST ThermoML archive (doi:10.1021/je600575r)
